The test system of series [1] is H1N1 influenza A strain, Ca107. As to the kind of experiment: Immunogenicity in ferret models (Influenza): microneutralization. To be noted: IM. The format is in vivo, ferrets. How it is done: For immunization in ferrets, a lipid working solution was freshly prepared by dissolving 22.5 mg of Example 1, 5.9 mg of DSPC, 13.9 mg of Cholesterol and 4.0 mg of PEG2000-conjugated DMPE (cat #880150P, Avanti Polar Lipids, Inc.) in 10 ml ethanol. A 10 mL working solution of RNA was also prepared at a concentration of 0.125 mg/ml in 100 mM citrate buffer (pH 6). The working lipid and RNA solutions were heated at 37° C. for 5 min before being loaded into two 10 cc luer-lok syringes. […] The outlet from the T mixer was also FEP tubing separately, 10 mL of citrate buffer (pH 6) was loaded in a third 10 cc syringe which was connected to a separate piece of tubing. All three syringes were loaded on a syringe pump and driven at 1.0 ml/min. The tubing outlets were positioned to collect the mixtures in a 20 mL glass vial which was gently stirred using a stirring bar. All glass vials were baked at 250° C. for 12 hours prior to experiment to completely inactivate any RNase contaminant. At the end of mixing, the stir bar was taken out and the ethanol/aqueous solution was allowed to equilibrate to room temperature for 1 hour. After incubation, the ethanol/aqueous solution was loaded into a syringe, and mixed with equal volume of 100 mM citrate buffer (pH 6) using the aforementioned Tee-junction process. Next, LNPs were concentrated to 20 mL and dialyzed against 10-15 volumes of 1× PBS using by tangential flow filtration before recovering the final product. The TFF system and hollow fiber filtration membranes were purchased from Spectrum Labs (Rancho Dominguez) and were used according to the manufacturer's guidelines. Polysulfone hollow fiber filtration membranes with a 100 kD pore size cutoff and 8 cm^2 surface area were used. For in vitro and in vivo experiments formulations were diluted to the required RNA concentration with 1×. PBS.
A total of seven experimental groups with six animals per group (42 animals) were used in this study; two vaccine doses of each RNA formulation (Groups 2-5), two groups vaccinated with a non-adjuvated (H1N1 subunit) or an adjuvated (MF59/H1N1 subunit) commercially available H1N1 influenza subunit vaccine (Groups 6 and 7) and a mock vaccinated group (Group 1). The RNA test vaccines were derived from a recombinant DNA plasmid (pDNA) carrying an alphavirus genome in which the structural genes were replaced with the HA gene from the H1N1 influenza A strain, Ca107. The RNA was then formulated in either cationic oil-in-water emulsion (CNE) or LNP for delivery to host cells via intramuscular (IM) injection. RNA concentrations for each formulation study group were 15 and 45 mcg for CNE and 5 and 15 mcg for LNP. The H1N1 subunit vaccines were used at a HA subunit protein concentration of 15 mcg. Non-vaccinated animals were mock vaccinated with a vehicle control for the RNA test vaccines. All test vaccines were administered by IM injection on Study Days (SD) 0 followed with a booster vaccination on Study Day 56 (8 weeks post 1st immunization).
Table 5 summarizes Influenza microneutralization data and table 6 the haemagultanin inhibition (HAI) titers. The LNP formulation tested generated immune responses with as little as 5 μg of self-amplifying RNA, as determined by increased HA-specific neutralization and HAI titers.

Series [2] in a line: Encapsulation efficiency of RNA replicons (Quant-iT RiboGreen). The conditions noted are these: LNP 40% cationic lipid, 10% DSPC, 48% cholesterol, 2% PEG-DMG; RNA replicon. It counts as physicochemical. As for the experimental part: Briefly, lipids were dissolved in ethanol (2m1), a RNA replicon was dissolved in buffer (2 ml, 100 mM sodium citrate, pH 6) and these were mixed with 2 ml of buffer followed by 1 hour of equilibration. The mixture was then dialized overnight against 1×PBS. The resulting product contained liposomes, with ˜70-95% encapsulation efficiency.
The percentage of encapsulated RNA and RNA concentration were determined by Quant-iT RiboGreen RNA reagent kit (Invitrogen), following manufacturer's instructions. The ribosomal RNA standard provided in the kit was used to generate a standard curve. LNPs were diluted 10× or 100× in 1× TE buffer (from kit) before addition of the dye. Separately, LNPs were diluted 10× or 100× in 1× TE buffer containing 0.5% Triton X before addition of the dye (to disrupt the LNPs and thus to assay total RNA). Thereafter an equal amount of dye was added to each solution and then ˜180 μL of each solution after dye addition was loaded in duplicate into a 96 well tissue culture plate. The fluorescence (Ex 485 nm, Em 528 nm) was read on a microplate reader. All LNP formulations were dosed in vivo based on the encapsulated amount of RNA.
Background: In antiviral work, replicon cells carry a viral genome segment that copies itself.

Series [3] has as its system RSV F protein. The format is in vivo. The conditions noted are these: Table 4; BALB/c mice, intramuscular, 1 ng vA375 replicon in LNP, days 0 and 21.

Each structure is given as a SMILES string. Where “and” joins values, the source holds several entries; their conditions need not be identical. Identical values can stand only once.

Take `CCCCC/C=C\C/C=C\CCCCCCCCOc1ccc(OCCCCCCCC/C=C\C/C=C\CCCCC)c(COC(=O)CCCN(C)C)c1` [Example 1, 2,5-bis((9Z,12Z)-octadeca-9,12-dien-1-yloxy)benzyl 4-(dimethylamino)butanoate]: the Influenza microneutralization titer in series [1] (5 mcg RNA, 4wp1, per animal) was 20 (2×) and 80 and 40 (2×) and 10; in series [1] (5 mcg RNA, 4wp2, per animal), 640 (2×) and >20480 (3×) and 320; in series [1] (5 mcg RNA, 8wp1, per animal) it was 20 (2×) and 40 (2×) and 10 and <10; in series [1] (5 mcg RNA, Pre-bleed, per animal), <10; in series [1] (15 mcg RNA, 4wp1, per animal) it was 160 (2×) and 320 and 80 (2×) and 40; in series [1] (15 mcg RNA, 4wp2, per animal) it was 640 (4×) and >20480 (2×). Further, the Influenza microneutralization titer in series [1] (15 mcg RNA, 8wp1, per animal) was 40 (3×) and 80 (2×) and 20; in series [1] (15 mcg RNA, Pre-bleed, per animal), <10. Further, the “Encapsulation efficiency (RNA %)” value in series [2] was 96.6%. The “Log10(IgG titer), 1 ng RNA (RSV-F), 2 weeks post 2nd immunization” value in series [3] was 4.43.

Values taken from patent US10844002B2, “Lipids and lipid compositions for the delivery of active agents” (priority 2014, dated 2020).
